The results in this text go back to patent publication US20180215769A1, “POLYCYCLIC-CARBAMOYLPYRIDONE COMPOUNDS AND THEIR PHARMACEUTICAL USE” (priority 2012, published 2018).

Read-outs that look alike come from different tables or passages of the source.

Type in all cases: cell-based
For one data set, the system named is HIV-IIIb. Briefly: Antiviral assay in MT4 cells. Particulars: Human immunodeficiency virus 1, IIIB, MT4, 120 h.
The nature of data set [1]: Cytotoxicity (CC50) in MT4 cells, CellTiter-Glo. Particulars: human.
Procedure: (§3) For the antiviral assay utilizing MT4 cells, 0.4 μL of 189× test concentration of 3-fold serially diluted compound in DMSO was added to 40 μL of cell growth medium (RPMI 1640, 10% FBS, 1% penicilline/Streptomycine, 1% L-Glutamine, 1% HEPES) in each well of 384-well assay plates (10 concentrations) in quidruplicate.
(§4) 1 mL aliquots of 2×10^6 MT4 cells are pre-infected for 1 and 3 hours respectively at 37° C. with 25 μL (MT4) or of either cell growth medium (mock-infected) or a fresh 1:250 dilution of an HIV-IIIb concentrated ABI stock (0.004 m.o.i. for MT4 cells). Infected and uninfected cells are diluted in cell growth medium and 35 μL of 2000 (for MT4) cells is added to each well of the assay plates.
(§5) Assay plates were then incubated in a 37° C. incubator. After 5 days of incubation, 25 μL of 2× concentrated CellTiter-Glo™ Reagent (catalog # G7573, Promega Biosciences, Inc., Madison, Wis.) was added to each well of the assay plate. Cell lysis was carried out by incubating at room temperature for 2-3 minutes, and then chemiluminescence was read using the Envision reader (PerkinElmer).
Another data set addresses T1, human PXR (NR1I2) (Homo sapiens, UniProt O75469).
T1 construct: expressed in transfected cells; host or cells: DPX2 (stably transformed tumor cell line)
T1 sequence (O75469 1-434): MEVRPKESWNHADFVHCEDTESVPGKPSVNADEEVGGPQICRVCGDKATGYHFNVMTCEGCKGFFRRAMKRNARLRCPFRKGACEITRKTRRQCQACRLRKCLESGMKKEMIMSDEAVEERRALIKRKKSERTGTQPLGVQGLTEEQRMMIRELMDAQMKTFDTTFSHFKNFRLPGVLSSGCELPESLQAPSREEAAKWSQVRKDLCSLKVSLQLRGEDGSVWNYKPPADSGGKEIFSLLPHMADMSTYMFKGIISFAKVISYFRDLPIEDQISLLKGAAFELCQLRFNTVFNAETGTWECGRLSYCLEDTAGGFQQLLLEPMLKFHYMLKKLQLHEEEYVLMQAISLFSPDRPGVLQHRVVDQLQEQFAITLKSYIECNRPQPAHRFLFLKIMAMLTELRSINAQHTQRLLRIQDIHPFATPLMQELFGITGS
Briefly: Human PXR activation assay, luciferase reporter gene in DPX2 cells. Particulars: human, relative to maximum fold induction by 10 or 20 uM rifampicin. The protocol: (§1) Luciferase Reporter Gene Assay.
(§2) A stably transformed tumor cell line (DPX2) plated on 96-well microtiter plates. DPX2 cells harbor the human PXR gene (NR1I2) and a luciferase reporter gene linked to two promoters identified in the human CYP3A4 gene, namely XREM and PXRE. The cells are treated with six concentrations of compounds (0.15˜50 µM) and incubated for 24 hr. The number of viable cells will be determined and the reporter gene activity is assessed. Positive control: Rifampicin at 6 concentrations (0.1˜20 µM). % Emax relative to the maximum fold induction by 10 or 20 µM RIF is calculated for test compounds according to the following equation which adjusts for the DMSO background: % Emax=(Fold induction−1)/(Maximum fold induction by RIF−1)×100%.

Another data set concerns the target T2, human PXR (Homo sapiens, UniProt O75469).
T2 construct: expressed in transfected cells; host or cells: DPX2 (stably transformed tumor cell line)
T2 sequence (O75469 1-434): T1 sequence (O75469 1-434)
Described as above. Particulars: 24 hr, relative to maximum fold induction by 10 or 20 uM rifampicin. As to the method:
as §1, §2

[2] abbreviates: MT-4 cells infected with HIV-IIIb, 5 days incubation, read-out: EC50.

Procedure for HIV-IIIb: as §3, §4, §5

In the case of `O=C(NCc1ccc(F)cc1F)c1cn2c(c(O)c1=O)C(=O)N1[C@H]3CC[C@H](C3)O[C@@H]1C2` [Compound 2], the EC50 with HIV-IIIb (setting [2]) is 1.9 nM. The CC50 at 5 days in data set [1] turned out to be 2960 nM. Further, the maximum response (Emax) at 24 hr, 15 µM at human PXR (NR1I2) was determined as 2.8%. Taken in the same sequence, the figures for `O=C(NCc1ccc(F)cc1F)c1cn2c(c(O)c1=O)C(=O)N1[C@@H]3CC[C@@H](C3)O[C@H]1C2` [Compound 3] were 1.9 nM, 36200 nM and 5%. Turning to `O=C(NCc1ccc(F)cc1F)c1cn2c(c(O)c1=O)C(=O)N1C(C2)[N@@]2CC[C@@H]1C2` (stereo partly drawn) [Compound 4, (1 S,4R)—N-(2,4-difluorobenzyl)-7-hydroxy-6,8-dioxo-3,4,6,8,12,12a-hexahydro-2H-1,4-methanopyrido[1′,2′:4,5]pyrazino[1,2-a]pyrimidine-9-carboxamide], the “% Emax” value at human PXR was found to be 3.2%. `O=C(NCc1ccc(F)cc1F)c1cn2c(c(O)c1=O)C(=O)N1C(C2)[N@]2CC[C@H]1C2` (stereo partly drawn) [Compound 6] returned a CC50 at 5 days in data set [1] of 53200 nM. Regarding `O=C(NCc1ccc(F)cc1F)c1cn2c(c(O)c1=O)C(=O)N1C(C2)O[C@H]2CCC[C@@H]1C2` (stereo partly drawn) [Compound 7], the “% Emax” value on human PXR was 6.5%. Regarding `O=C(NCc1ccc(F)cc1F)c1cn2c(c(O)c1=O)C(=O)N1C(C2)O[C@@H]2CCC[C@H]1C2` (stereo partly drawn) [Compound 8], at human PXR, the “% Emax” value came out at 6.6%.

For the compound `C[C@@H](NC(=O)c1cn2c(c(O)c1=O)C(=O)N1[C@@H]3CC[C@@H](C3)O[C@H]1C2)c1ccc(F)cc1` [Compound 9], the Emax at 24 hr, 15 µM at human PXR (NR1I2) came out at 0.07%. Still for that read-out and setting: under `C[C@@H](NC(=O)c1cn2c(c(O)c1=O)C(=O)N1[C@H]3CC[C@H](C3)O[C@@H]1C2)c1ccc(F)cc1` [Compound 10] stands 0.19%.

`C[C@@H](NC(=O)c1cn2c(c(O)c1=O)C(=O)N1[C@@H]3CC[C@@H](C3)O[C@H]1C2)c1ccc(F)cc1F` [Compound 11]: the concentration for a half-maximal effect (EC50) in the data set with HIV-IIIb (setting [2]) turned out to be 4.4 nM. Consider `C[C@@H](NC(=O)c1cn2c(c(O)c1=O)C(=O)N1[C@H]3CC[C@H](C3)O[C@@H]1C2)c1ccc(F)cc1F` [Compound 12], for which the EC50 with HIV-IIIb (setting [2]) was 5.4 nM. Besides, the half-maximal cytotoxic concentration (CC50) at 5 days in data set [1] was determined as 3230 nM.

Regarding `O=C(NCc1ccc(F)c(F)c1)c1cn2c(c(O)c1=O)C(=O)N1[C@@H]3CC[C@@H](C3)O[C@H]1C2` [Compound 18], the “% Emax” value on human PXR turned out to be 4.4%. Take `O=C(NCc1ccc(F)cc1F)c1cn2c(c(O)c1=O)C(=O)N1C(C2)[N@]2CCC[C@H]1C2` (stereo partly drawn) [Compound 19]: the “% Emax” value on human PXR is given as 1.5%. For `O=C(NCc1ccc(F)cc1F)c1cn2c(c(O)c1=O)C(=O)N1C(C2)[N@@]2CCC[C@@H]1C2` (stereo partly drawn) [Compound 20], on human PXR, the “% Emax” value was 2.4%.

Consider `O=C(NCc1ccccc1F)c1cn2c(c(O)c1=O)C(=O)N1[C@@H]3CC[C@@H](C3)O[C@H]1C2` [Compound 23], for which the EC50 in the data set on HIV-IIIb (setting [2]) is 1.8 nM. For the same compound, the CC50 at 5 days in data set [1] was found to be 11500 nM. Take `O=C(NCc1cc(F)cc(F)c1)c1cn2c(c(O)c1=O)C(=O)N1[C@@H]3CC[C@@H](C3)O[C@H]1C2` [Compound 24]: in the data set on HIV-IIIb, a half-maximal effect (EC50) was put at 3.4 nM. Moreover, the CC50 at 5 days in data set [1] (MT4 cells, MT-4 cells, 5 days incubation, read-out: CC50) was found to be 12600 nM. Consider `O=C(NCc1ccc(F)c(C(F)(F)F)c1)c1cn2c(c(O)c1=O)C(=O)N1[C@@H]3CC[C@@H](C3)O[C@H]1C2` [Compound 25], for which the half-maximal effective concentration (EC50) in the data set on HIV-IIIb (setting [2]) worked out at 17.9 nM. The CC50 at 5 days in data set [1] was 7070 nM. Taken in the same sequence, the figures for `O=C(NCc1ccc(Cl)c(F)c1)c1cn2c(c(O)c1=O)C(=O)N1[C@@H]3CC[C@@H](C3)O[C@H]1C2` [Compound 26] were 8 nM and 11500 nM. As for `O=C(NC1(c2ccc(F)cc2F)CC1)c1cn2c(c(O)c1=O)C(=O)N1C(C2)O[C@H]2CC[C@@H]1C2` (stereo partly drawn) [Compound 27], in the data set with HIV-IIIb (setting [2]), the concentration giving a half-maximal response (EC50) was 4 nM. With `O=C(NC1(c2ccc(F)cc2F)CC1)c1cn2c(c(O)c1=O)C(=O)N1C(C2)O[C@H]2CCC[C@@H]1C2` (stereo partly drawn) [Compound 28], the “% Emax” value on human PXR came out at 6.1%. As to `O=C(NC1(c2ccc(F)cc2F)CC1)c1cn2c(c(O)c1=O)C(=O)N1C(C2)O[C@@H]2CCC[C@H]1C2` (stereo partly drawn) [Compound 29], the “% Emax” value at human PXR is given as 3.2%. On to `O=C(NC1(c2ccc(F)cc2F)CCCCC1)c1cn2c(c(O)c1=O)C(=O)N1C(C2)O[C@H]2CC[C@@H]1C2` (stereo partly drawn) [Compound 34], for which the EC50 with HIV-IIIb was found to be 456 nM. In the case of `O=C(N[C@@H](c1ccc(F)cc1F)C(F)(F)F)c1cn2c(c(O)c1=O)C(=O)N1C(C2)O[C@H]2CC[C@@H]1C2` (stereo partly drawn) [Compound 36], the concentration for a half-maximal effect (EC50) in the data set with HIV-IIIb (setting [2]) is 3.5 nM. Half-maximal cytotoxicity in data set [1] (CC50 at 5 days) was put at 13500 nM. Take `C[C@H]1CO[C@@H]2Cn3cc(C(=O)NC4(c5ccc(F)cc5F)CC4)c(=O)c(O)c3C(=O)N12` [Compound 37, (3S,11aR)—N-(1-(2,4-difluorophenyl)cyclopropyl)-6-hydroxy-3-methyl-5,7-dioxo-2,3,5,7,11,11a-hexahydrooxazolo[3,2-a]pyrido[1,2-d]pyrazine-8-carboxamide]: the “% Emax” value on human PXR was determined as 1.5%.
